The target in data set [1] is T1, DNA topoisomerase 1 (Homo sapiens) (UniProt P11387).
T1 sequence (whole entry): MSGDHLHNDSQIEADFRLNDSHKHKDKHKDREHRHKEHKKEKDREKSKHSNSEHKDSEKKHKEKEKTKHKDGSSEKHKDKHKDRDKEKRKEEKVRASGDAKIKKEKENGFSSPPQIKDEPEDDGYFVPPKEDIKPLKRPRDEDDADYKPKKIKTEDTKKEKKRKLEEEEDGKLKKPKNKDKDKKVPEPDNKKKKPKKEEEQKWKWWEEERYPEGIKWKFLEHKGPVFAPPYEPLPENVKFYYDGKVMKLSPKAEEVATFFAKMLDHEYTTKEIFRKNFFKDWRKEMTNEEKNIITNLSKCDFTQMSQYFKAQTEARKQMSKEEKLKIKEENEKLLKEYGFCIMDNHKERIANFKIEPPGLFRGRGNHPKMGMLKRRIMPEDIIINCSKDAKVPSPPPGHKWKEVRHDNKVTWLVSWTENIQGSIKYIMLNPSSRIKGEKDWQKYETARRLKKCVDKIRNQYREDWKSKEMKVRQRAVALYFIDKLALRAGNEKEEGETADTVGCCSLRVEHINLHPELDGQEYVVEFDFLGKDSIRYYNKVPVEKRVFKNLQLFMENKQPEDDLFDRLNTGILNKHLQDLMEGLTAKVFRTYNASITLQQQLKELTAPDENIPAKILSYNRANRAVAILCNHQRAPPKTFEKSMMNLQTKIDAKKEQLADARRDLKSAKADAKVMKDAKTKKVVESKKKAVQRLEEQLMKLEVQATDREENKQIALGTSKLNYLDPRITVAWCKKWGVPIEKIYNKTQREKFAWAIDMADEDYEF
Briefly: Inhibition of Homo sapiens (human) topoisomerase 1 assessed as relaxation of supercoiled DNA up to 25 uM by agarose gel electrophoresis.

The subject of data set [2] is BT-549. Briefly: Cytotoxicity against Homo sapiens (human) BT549 cells up to 25 uM by neutral red staining. In kind it is functional, cell-based.
Data set [3] has as its system Vero. Briefly: Cytotoxicity against Chlorocebus aethiops (African green monkey) Vero cells up to 25 uM by neutral red staining. In kind it is cell-based. Particulars: chlorocebus sabaeus.
For data set [4], the target named is T2, DNA topoisomerase 2-alpha (Homo sapiens, UniProt P11388). The data set is described as follows: Inhibition of Homo sapiens (human) topoisomerase 2 assessed as decatenation of KDNA up to 25 uM by agarose gel electrophoresis.
T2 sequence (P11388 whole entry): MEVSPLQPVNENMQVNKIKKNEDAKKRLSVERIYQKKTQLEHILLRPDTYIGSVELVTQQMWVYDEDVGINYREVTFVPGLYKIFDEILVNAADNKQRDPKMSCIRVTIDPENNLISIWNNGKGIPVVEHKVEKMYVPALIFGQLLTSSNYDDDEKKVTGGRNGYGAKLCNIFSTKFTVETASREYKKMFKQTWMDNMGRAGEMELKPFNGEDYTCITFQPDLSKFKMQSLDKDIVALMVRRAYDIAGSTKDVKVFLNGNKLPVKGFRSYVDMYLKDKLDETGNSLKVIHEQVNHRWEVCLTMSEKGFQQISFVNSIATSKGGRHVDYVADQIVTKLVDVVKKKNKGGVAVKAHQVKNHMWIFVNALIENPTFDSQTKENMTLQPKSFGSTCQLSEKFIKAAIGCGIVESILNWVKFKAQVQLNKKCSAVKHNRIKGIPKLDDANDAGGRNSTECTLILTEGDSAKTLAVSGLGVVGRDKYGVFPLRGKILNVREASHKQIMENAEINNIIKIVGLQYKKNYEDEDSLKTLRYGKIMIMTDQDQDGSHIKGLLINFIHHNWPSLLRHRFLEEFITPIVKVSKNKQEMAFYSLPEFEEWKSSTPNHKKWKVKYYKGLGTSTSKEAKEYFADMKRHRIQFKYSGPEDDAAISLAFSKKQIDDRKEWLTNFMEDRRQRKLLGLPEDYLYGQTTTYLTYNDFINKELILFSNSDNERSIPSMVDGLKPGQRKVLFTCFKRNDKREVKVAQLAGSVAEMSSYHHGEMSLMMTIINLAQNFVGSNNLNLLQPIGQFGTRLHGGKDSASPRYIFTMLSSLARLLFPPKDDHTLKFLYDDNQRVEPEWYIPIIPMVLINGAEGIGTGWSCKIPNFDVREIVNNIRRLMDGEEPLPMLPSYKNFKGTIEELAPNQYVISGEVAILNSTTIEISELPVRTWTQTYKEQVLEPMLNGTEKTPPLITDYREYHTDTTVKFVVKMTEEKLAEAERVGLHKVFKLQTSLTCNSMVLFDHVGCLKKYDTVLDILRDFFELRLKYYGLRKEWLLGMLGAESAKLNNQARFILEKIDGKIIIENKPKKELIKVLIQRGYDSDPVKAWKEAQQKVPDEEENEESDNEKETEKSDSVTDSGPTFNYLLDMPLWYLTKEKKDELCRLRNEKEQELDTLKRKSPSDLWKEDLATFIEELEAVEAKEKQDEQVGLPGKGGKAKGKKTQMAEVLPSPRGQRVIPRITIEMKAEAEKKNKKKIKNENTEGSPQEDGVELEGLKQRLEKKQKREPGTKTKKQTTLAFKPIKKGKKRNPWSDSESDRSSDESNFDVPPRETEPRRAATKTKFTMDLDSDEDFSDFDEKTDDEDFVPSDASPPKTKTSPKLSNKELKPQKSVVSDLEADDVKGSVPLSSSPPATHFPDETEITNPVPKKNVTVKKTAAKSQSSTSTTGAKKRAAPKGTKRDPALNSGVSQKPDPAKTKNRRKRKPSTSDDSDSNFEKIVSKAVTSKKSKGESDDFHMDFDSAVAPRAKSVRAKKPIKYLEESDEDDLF
In data set [5] the test system is SK-OV-3. Briefly: Cytotoxicity against Homo sapiens (human) SKOV3 cells up to 25 uM by neutral red staining. In kind it is functional, cell-based.
Data set [6] addresses T1, DNA topoisomerase 1 (Homo sapiens). The data set is described as follows: Inhibition of Homo sapiens (human) topoisomerase 1 assessed as production of nicked DNA up to 25 uM by agarose gel electrophoresis.
Data set [7] has as its system LLC-PK1. Briefly: Cytotoxicity against Sus scrofa (pig) LLC-PK1 cells up to 25 uM by neutral red staining. In kind it is cell-based.
Data set [8] deals with KB. The data set is described as follows: Cytotoxicity against Homo sapiens (human) KB cells up to 25 uM by neutral red staining. In kind it is functional, cell-based.
Data set [9] concerns SK-MEL. Briefly: Cytotoxicity against Homo sapiens (human) SK-MEL cells up to 25 uM by neutral red staining. In kind it is functional, cell-based.
The test system of data set [10] is SK-OV-3. The data set is described as follows: Cytotoxicity against Homo sapiens (human) SKOV3 cells by neutral red staining. In kind it is functional, cell-based.
In data set [11] the test system is Vero. The data set is described as follows: Cytotoxicity against Chlorocebus aethiops (African green monkey) Vero cells by neutral red staining. In kind it is cell-based. As to conditions: chlorocebus sabaeus.
Data set [12] has as its target T2, DNA topoisomerase 2-alpha. Briefly: Inhibition of Homo sapiens (human) topoisomerase 2 assessed as decatenation of KDNA by agarose gel electrophoresis.
Data set [13] relates to SK-MEL. The data set is described as follows: Cytotoxicity against Homo sapiens (human) SK-MEL cells by neutral red staining. In kind it is functional, cell-based.
Data set [14] has as its system KB. The data set is described as follows: Cytotoxicity against Homo sapiens (human) KB cells by neutral red staining. In kind it is functional, cell-based.
The test system of data set [15] is LLC-PK1. The data set is described as follows: Cytotoxicity against Sus scrofa (pig) LLC-PK1 cells by neutral red staining. In kind it is cell-based.
Data set [16] concerns BT-549. Briefly: Cytotoxicity against Homo sapiens (human) BT549 cells by neutral red staining. In kind it is functional, cell-based.

pIC50: −log10 of the molar value. Calls of active or inactive are those of the source. The calls are words filed in the database; no cut-off is given here.

For the molecule `CCOc1cc(/C=C/C(=O)CC(=O)/C=C/c2ccc(OC(=O)CCNCCN(C)C)c(OCC)c2)ccc1OC(=O)CCNCCN(C)C`, the inhibition entry in data set [1], in data set [4] and in data set [6] was “inactive” each time. In addition, the outcome with BT-549 [2], in the data set with SK-OV-3 [5], with KB [8] and in the data set on SK-MEL [9] was inactive. Further, the Activity entry with Vero [3] and in the data set on LLC-PK1 [7] was “Non-toxic” throughout.

Usually pIC50 stands for the negative decadic logarithm of the IC50, by convention in mol/L. Take `COc1cc(/C=C/C(=O)CC(=O)/C=C/c2ccc(OC(=O)CNc3ccc(S(N)(=O)=O)cc3)c(OC)c2)ccc1OC(=O)CNc1ccc(S(N)(=O)=O)cc1`: the pIC50 in the data set with SK-OV-3 [10] was 4.65; in the data set on Vero [11], 4.96; in data set [12], 5.52; in the data set with SK-MEL [13], 4.73; with KB [14] it was 4.85; in the data set with LLC-PK1 [15] it was 4.80. Further, in the data set on BT-549 [16], the pIC50 is 4.98. Besides, the inhibition entry in data set [1] and in [6] was “inactive” each time.

Values taken from ChEMBL document CHEMBL3046266, “Synthesis of curcumin and ethylcurcumin bioconjugates as potential antitumor agents” (Med Chem Res, 2012).
